For 1 molecule, EC50 and IC50 results are on record in publication PMC9319939, “Siccanin Is a Dual-Target Inhibitor of Plasmodium falciparum Mitochondrial Complex II and Complex III” (Pharmaceuticals, 2022).

Where two headings read alike, the source gives them in different places.

Experiment [1] concerns Dd2_048 (PI4K-S743T mutation). Kind of experiment: Growth inhibition of Dd2_048 (MMV390048-resistant). Particulars: Plasmodium falciparum, read-out: Growth inhibition EC50, 048. Format: cell-based. As for the experimental part:
P. falciparum 3D7-yDHODH was prepared and maintained as described previously. P. falciparum Dd2, and Dd2-derived mutant strains were kindly provided by David A. Fidock, and maintained at Nagasaki University essentially as described in reference, except without supplementation with WR99210.
(§1) Synchronized ring-form parasites (0.3% parasitemia) were prepared in complete medium containing different concentration of various compounds (at a fixed final DMSO concentration of 0.1% (v/v)) and distributed to 96-well plates at 100 μL/well. After 72 h of incubation, parasite growth was monitored by the previously described lactate dehydrogenase (PfLDH)-based assay method; plates were read using a SpectraMax® Paradigm spectrophotometer (Molecular Devices, Inc.; San Jose, CA, USA). EC50 values were calculated using Prism® ver.6.01 (GraphPad; San Diego, CA, USA). Values are presented as the means of three independent experiments.

In the next experiment the test system is Mammal complex II. Particulars: ref Mogi et al. [34]; read-out: Siccanin IC50, Mammal, Complex II; cited from earlier work.
For another experiment, the system named is HDF cells. Kind of experiment: Mammalian cell cytotoxicity assay, CCK8, 48 h. Format: cell-based. Particulars: Homo sapiens. The procedure:
(§2) Human colorectal adenocarcinoma cells (DLD-1) and Human Dermal Fibroblasts (HDF) cells were obtained from Taiho Pharmaceutical Company (Tokyo, Japan). DLD-1 cells were cultured in RPMI 1640 medium supplemented with 10% (v/v) heat-inactivated fetal bovine serum (FBS) (Gibco; San Diego, CA, USA); HDF cells were cultured in DMEM/F12 medium supplemented with 10% (v/v) heat-inactivated FBS. For both lines, cells were grown under 5% CO2 at 37 °C in an ACI-165D CO2 incubator (ASTEC; Fukuoka, Japan).
(§3) DLD-1 and HDF cells, (2.5 × 10^4 cells/mL) in 96-well plates, were cultured for 24 h. The cells then were washed with phosphate-buffered saline (PBS) and the medium was replaced with fresh medium supplemented with 10% (v/v) FBS. Medium containing siccanin at various concentrations was added to the wells and the cells were cultured for another 48 h. Controls were treated with medium containing 1% (v/v) DMSO and 10% (v/v) FBS. Next, the cells were washed with PBS and the medium was replaced with fresh medium supplemented with 10% (v/v) FBS. An aliquot (10 µL) of CCK8 solution (Cell Counting Kit-8; Dojindo Laboratories; Kumamoto, Japan) was added to each well and the plates were incubated for another 2 h, at which point absorbance at 450 nm was monitored using a SpectraMax® Paradigm spectrophotometer. The EC50 values were calculated using Prism® ver.6.01. The selectivity was calculated as the ratio between DLD-1 or HDF versus P. falciparum IC50s.

A further experiment has as its system DLD-1 cells. Kind of experiment: Mammalian cell cytotoxicity assay, CCK8, 48 h. The format is cell-based. The settings on record: Homo sapiens. The procedure:
as §2, §3

A further experiment has as its system P. falciparum 3D7. Kind of experiment: Drug sensitivity assay, 72 h, PfLDH-based. Particulars: Plasmodium falciparum. The format is cell-based. The procedure:
The P. falciparum 3D7 strain was cultured, as described previously, in 3% hematocrit type A human red blood cells (RBCs) in RPMI1640 medium (Invitrogen; San Diego, CA, USA) supplemented with 25 mM sodium hydrogen biocarbonate, 10 μg/mL hypoxanthine, 40 μg/mL gentamicin sulfate, and 0.5% (w/v) Albumax II (Invitrogen) (“complete medium”). Cultures were maintained in a MG-70M multi-gas incubator (Taitec) under the conditions of 5% O2, 5% CO2, and 90% N2 at 37 °C. The medium was replaced daily. Parasitemia was measured by thin blood smears stained with Giemsa. In our previous study, we generated mutant P. falciparum strains expressing either disrupted or full-length versions of the flavoprotein (Fp) subunit (encoded by the Pfsdha gene). Both strains were cultured in complete medium at 3% hematocrit supplemented with 5 nM WR99210 (Jacobus Pharmaceuticals; Plainsboro, NJ, USA). The experiments using human RBCs were performed under the guidelines of Research Ethics Committee of the Faculty of Medicine of the University of Tokyo and Institutional Review Board (IRB) of Nagasaki University (Permission nos. 10050 and no. 19, respectively). Human RBCs were obtained from The Japanese Red Cross Society. The synchronization of parasite cultures was performed by treating with 5% (w/v) sorbitol for 10 min [77].
as §1

In the case of `Cc1cc(O)c2c(c1)O[C@@]1(C)CC[C@H]3C(C)(C)CCC[C@]34CO[C@@H]2[C@H]41` [Siccanin], the EC50 in experiment [1] came to 13.5 µM; with HDF cells (HDF, 48 h, read-out: 50% effective concentration (EC50), growth of HDF cells), 16.1 ± 1.21 µM; in the experiment on DLD-1 cells (DLD-1, 48 h, read-out: 50% effective concentration (EC50), growth of DLD-1 cells), 34.2 ± 2.73 µM; in the experiment with P. falciparum 3D7 (3D7, Figure 6a, read-out: Growth inhibition EC50, 3D7 (parent)), 11.7 µM. Moreover, the IC50 was 861 µM in the experiment with Mammal complex II; 16.1 µM with HDF cells (HDF cells, read-out: Siccanin IC50, Mammal, Growth); 34.2 µM in the experiment on DLD-1 cells (DLD-1 cells, read-out: Siccanin IC50, Mammal, Growth); 6.1 ± 1 µM in the experiment on P. falciparum 3D7 (3D7, read-out: Growth IC50, parent (wild-type) 3D7); 11.5 ± 1.09 µM in the experiment on P. falciparum 3D7 (3D7, 72 h, 5 mM fumarate, read-out: Growth IC50 in presence of fumarate); 10.8 ± 2.16 µM in the experiment with P. falciparum 3D7 (3D7, 72 h, 5 mM succinate, read-out: Growth IC50 in presence of succinate). The IC50 with P. falciparum 3D7 (3D7, 72 h, no succinate or fumarate added, read-out: Growth IC50, P. falciparum) came to 8.4 µM.
